Source: US11779600B2, “Methods of treating or preventing alzheimer's disease and associated conditions” (CEDARS-SINAI MEDICAL CENTER, priority 2016, dated 2023)

How the values were obtained:
Assay type in all cases: cell-based, mouse
[1] = system: bone marrow-derived macrophages (MΦ^BM); assay: Fibrillar Aβ1-42 phagocytosis assay in bone marrow-derived macrophages; settings: 24 hours treatment, then fAβ1-42 for 30 min; quantitative ICC (FIG. 16E)
Procedure: Lyophilized non-fluoro amyloid-β1-42 peptide (#20276; Anaspec) was initially monomerized by dissolving it in ice-cold HFIP (hexafluoroisopropanol) (#52512; Sigma) to a final concentration of 1 mM and then aliquoted in sterile siliconized microcentrifuge tubes. The HFIP was first evaporated while in the sterile hood and then under vacuum conditions in a SpeedVac for 2 h to remove any trace of HFIP; the peptide film was stored at −20° C. until use. To induce fibril formation, fluoro (HiLyte647; #64161; Anaspec) and non-fluoro amyloid-β1-42 films were resuspended in media to which 10% of sterile NaOH 60 mM was first added and the media were vortexed for 30 s. Then, a sterile 45% H2O and a sterile 45% solution of 20 mM NaH2PO4+Na2HPO4 (pH 7.4) were added, and the media were vortexed again and incubated on a shaker for 2 weeks at 37° C. Pre-formed amyloid-β1-42 fibrils were then sonicated for 60 s and diluted to 100 nM using the same media prior to the phagocytosis assay.
To test amyloid-β phagocytosis by macrophage, in repeated experiments monocytes were isolated from the bone marrow of wild-type mice (n=18 mice) and differentiated into macro-phage by 7-day cultivation in complete RPMI-1640 medium (#21870; Life Technologies) with 10% serum and 20 ng/ml MCSF (#315-02; PeproTech). Bone marrow-derived macrophages (MΦBM) were generated from femurs and tibiae cultured for 6-7 days in complete RPMI 1640 medium (Life Technologies) with 10% FBS, 100 U/ml penicillin, 100 μg/ml streptomycin, 2 mM L-glutamine and 20 ng/ml MCSF (PeproTech). Primary cultures of macrophage were then plated at 1.2×10^5 cells per well (3-4 wells for each condition) in 24-well tissue-culture plates on glass cover-slips overnight. Next, macrophages were either treated with 30 μg/ml GA (Copaxone®; TEVA Neuroscience), Brefeldin A (BFA; Sigma, 1X), or 10 μM Minocycline (Sigma) for the duration of 1, 3, or 24 h, or not treated (control group). Before addition of fibrillar amyloid-β1-42, the cells were chilled in a 4° C. ice bath for 5 min; immediately after addition of the preformed fibrillar amyloid-β1-42 (100 nM), the plates were centrifuged at 515g in 25° C. followed by incubation at 37° C. for 30 or 60 min. The cells were then rinsed with amyloid-β-free medium to remove non-incorporated amyloid-β and later washed twice with PBS. Methanol (99.8%) at −20° C. for 20 min or 4% paraformaldehyde at room temperature for 12 min was used for fixation of the cells followed by repeated washes with PBS. […] The fluorescent signal and its total area were determined and quantified by the conversion of individual images to greyscale and standardizing to baseline using histogram-based thresholds with NIH ImageJ software. […]

iNOS = iNOS expression in macrophages by quantitative ICC; settings: 24 hours treatment, then fAβ1-42 for 30 min; quantitative ICC (FIG. 16D)
Procedure: To test amyloid-β phagocytosis by macrophage, in repeated experiments monocytes were isolated from the bone marrow of wild-type mice (n=18 mice) and differentiated into macro-phage by 7-day cultivation in complete RPMI-1640 medium (#21870; Life Technologies) with 10% serum and 20 ng/ml MCSF (#315-02; PeproTech). Bone marrow-derived macrophages (MΦBM) were generated from femurs and tibiae cultured for 6-7 days in complete RPMI 1640 medium (Life Technologies) with 10% FBS, 100 U/ml penicillin, 100 μg/ml streptomycin, 2 mM L-glutamine and 20 ng/ml MCSF (PeproTech). Primary cultures of macrophage were then plated at 1.2×10^5 cells per well (3-4 wells for each condition) in 24-well tissue-culture plates on glass cover-slips overnight. […] The fluorescent signal and its total area were determined and quantified by the conversion of individual images to greyscale and standardizing to baseline using histogram-based thresholds with NIH ImageJ software. […]
The expression of inducible nitric oxide synthase (iNOS), a hallmark of the proinflammatory M1 macrophage phenotype, in different treatment groups was assessed next (FIG. 16C-16D). […] Quantitative ICC assays confirmed a significant ˜1.3-fold increase in iNOS expression by minocycline-treated macrophages, and a substantial 48% reduction in Aβ^1-42 phagocytosis. […]

[2] = system: primary cortical neurons (CN); assay: Synaptic toxicity of Aβ1-42 assemblies in primary cortical neurons; settings: for reduction in co-localized VGluT1/PSD95+ puncta number: 250 nM Aβ assemblies, 12 hours, vs CN in medium alone (FIG. 1D); for decrease of co-localized VGluT1/PSD95+ puncta synaptic number: overnight exposure (FIG. 2E)
Procedure: Initially, synaptic toxicity induced by stable, structurally defined fAβ1-42 and oAβ1-42 forms in primary cortical neurons (CN) was tested. Neurons were incubated for 12 hours with 250 nM of Aβ assemblies or with medium only (vehicle) during day 8 of culture. An extensive loss of pre- and post-synaptic (VGluT1 & PSD-95, respectively) area and number, induced by both f/oAβ1-42 forms, was clearly detected (FIG. 1A-C). Synaptic density quantification indicated a significant 50% reduction in co-localized VGluT1/PSD95^+ puncta number following fAβ1-42. Moreover, we detected a 70% decrease in puncta number by oAβ1-42 when compared with CN in medium alone (FIG. 1D; p<0.0001). […] Next, Aβ-induced neuritic retraction was assessed. CN were immunolabeled with anti-Tuj1 and the total neuritic length per neuron was precisely quantified (FIG. 2A-D). Overnight incubation of f/oAβ1-42 led to a massive neuritic retraction compared with control CN group (FIG. 2B vs. 2A). Whether untreated- and GA-treated BM-derived MΦ (CD68^+ cells) could prevent synaptic and neuritic loss was tested next. Primary CN and MΦ were co-cultured for 48 h and introduced Aβ1-42 forms during the last 12 hours of co-culture. […] Quantitative analysis of co-localized VGluT1/PSD95^+ puncta synaptic number confirmed decreases of 32% and 65% after overnight exposure to fAβ1-42 or oAβ1-42, respectively (FIG. 2E). […] The in vivo effects of Aβ accumulation on synaptopathy and possible synaptic rescue by GA immunization or grafted BM-CD115^+ Mo was assessed. Pre- and post-synaptic alterations in coronal brain sections of 13m old AD^+(ADtg) mice that received these immune-modulation interventions were quantified (FIG. 3A-D). High magnification z-stack images obtained from 19 predefined areas in hippocampus and entorhinal cortex were captured in respective Bregma regions (FIG. 3A-D).
P1 neurons are prepared as previously reported. Briefly, cortical neurons (CN) are obtained from 1 day old neonatal mice, dissociated, resuspended and plated in 24-well culture plate at 5×10^4/ml cells. BM-MΦ are obtained as described herein. In short, mononuclear enriched BM-derived cells are isolated from C57BL/6 mice and differentiated into MΦ for 7 days. […] Cultures are processed for quantification of synaptic density and neuritic length. […] Microphotographs are shot using a Carl Zeiss ApoTome-equipped Axio Imager ZI fluorescence microscope. Synaptic puncta number and synaptic immunoreactive area are quantified with Puncta Analyzer. Total neurite length is measured using NeuriteTracer. At least 3 coverslips, 36 images and 150 neurons for each condition are analyzed. Average puncta number, synaptic area per image or per neuron will be calculated. […] In brief, on day 9 of culture, spontaneous network activity of CN is recorded for 60 min to gain baseline. […]

Row | Molecule | reduction in Aβ1-42 phagocytosis [1] | increase in iNOS expression (iNOS) | reduction in co-localized VGluT1/PSD95+ puncta number [2] | decrease of co-localized VGluT1/PSD95+ puncta synaptic number [2]
1 | CN(C)c1ccc(O)c2c1C[C@H]1C[C@H]3[C@H](N(C)C)C(O)=C(C(N)=O)C(=O)[C@@]3(O)C(O)=C1C2=O [minocycline, Minocycline] | 48% | ~1.3 fold | – | –
2 | fAβ1-42: pre-formed fibrils of amyloid-β1-42 peptide | – | – | 50% | 32%
3 | oAβ1-42: stabilized oligomeric amyloid-β1-42 assemblies | – | – | 70% | 65%
